Reference: paper PMC2430196, “Antagonist affinity measurements at the Gi-coupled human histamine H3 receptor expressed in CHO cells” (BMC Pharmacology, 2008)
Read-outs that look alike come from different tables or passages of the source. Values belong to the compound of their own block, whether it stands above or below them.

Key:
[1] = target: T1, human histamine H3 receptor (Homo sapiens, UniProt Q9Y5N1); assay: 3H-cAMP accumulation in forskolin-stimulated CHO-H3-SPAP cells; type: cell-based; parameters: secondarily transfected with the full length human histamine H3 receptor; host or cells: CHO-K1 cells with CRE-SPAP reporter (clonal line CHO-H3-SPAP); conditions: for intrinsic activity response in 3H-cAMP accumulation: n = 4
Protocol: Cells were grown to confluence in 24-well plates. The media was removed and the cells pre-labelled with ^3H-adenine by incubation with 2 μCi/ml ^3H-adenine in serum-free media (0.5 ml per well) for 3 hours. The ^3H-adenine was then removed and the cells washed by the addition then removal of 1 ml serum-free media. […] Forskolin (final concentration of 10 μM) was then added to all but the basal wells and the plates incubated for 30 minutes. The reaction was terminated by the addition of 50 μl concentrated HCl per well and the plates were then frozen. Later, the plates were thawed and ^3H-cAMP separated from other ^3H-nucleotides by sequential Dowex and alumina column chromatography, as previously described.
When the intrinsic efficacy of the antagonist ligands was examined, the antagonists were incubated for 5 hours at 37°C in order to maximise the chance of detecting any changes in ^3H-cAMP accumulation.
Response=Emax×[A]/IC50+[A]

[2] = target: T1, human histamine H3 receptor; assay: CRE-SPAP gene transcription in forskolin-stimulated CHO-H3-SPAP cells; conditions: for Kd / Schild slope / pKD values: CRE-SPAP; for agonist character in CRE-SPAP screen: inhibition of forskolin-stimulated CRE-SPAP production; for Schild slope: 3 antagonist concentrations; for pIC50, CRE-SPAP: agonism, inhibition of 4 μM forskolin-stimulated CRE-SPAP production
Protocol: (§1) The transfected cells were selected for neomycin resistance (1 mg/ml; for H3 receptor) and hygromycin resistance (200 μg/ml; for CRE-SPAP reporter gene) for 3 weeks and passaged twice during in this period. A single clone was then isolated by dilution cloning to give a clonal line (CHO-H3-SPAP cells). The parent cell CRE-SPAP was also used for control experiments (CHO-SPAP cells).
(§2) Cells were grown to confluence in 96-well tissue culture plates. The cells were then serum starved by removing the media and replacing it with 100 μl serum free media (DMEM/F12 containing 2 mM L-glutamine). […] Where used, pertussis toxin, at a final concentration of 100 ng/ml was added to the serum-free media and thus incubated with the cells for 24 hours. On the day of experimentation, the serum-free media was removed and replaced with 100 μl serum-free media or 100 μl serum-free media containing an antagonist at the final required concentration and the cells incubated for 1 hour. Agonist in 10 μl (diluted in serum free media) was then added to each well and the cells incubated for 10 minutes. Forskolin was then added to all but the basal wells to give a final well concentration of 4 μM and the plates incubated for 5 hours. After 5 hours, the media and all drugs were removed. […] The plates were then incubated at 65°C for 30 minutes to destroy any endogenous phosphatases. After cooling to 37°C, 100 μl 5 mM pNPP in diethanolamine buffer was added to each well and the plates incubated at 37°C in a normal atmosphere until the yellow colour developed.
(§3) Sigmoidal concentration-response curves were fitted to the data using Graphpad Prism 2 and the following equation:
(§4) Antagonist KD values were then calculated from the shift of the agonist concentration responses in the presence of a fixed concentration of antagonist using the following equation:
(§5) where DR (dose ratio) is the ratio of the agonist concentration required to stimulate an identical response in the presence and absence of a fixed concentration of antagonist [B].
(§6) In experiments where three different fixed concentrations of the same antagonist were used, Schild plots were constructed using the following equation:
Log (DR-1) = log [B] - log (KD)
(§7) These points were then fitted to a straight line.
(§8) Partial agonist dissociation constants were therefore estimated according to the method of Stephenson [35] using the following equation:
(§9) KD partial agonist=X.[P]/1−Xwhere X=[A2]−[A1]/[A3]

[3] = target: T1, human histamine H3 receptor; assay: cell-based
Protocol: as §1, §2, §3, §4, §5, §6
Log (DR-1) = log [B] - log (KD)
as §7, §8, §9

CHO-SPAP cells = assay: CRE-SPAP gene transcription in parent CHO-SPAP cells (without the H3 receptor); type: cell-based, Chinese hamster; conditions: for IC50: Cricetulus griseus, CHO-SPAP cells (without the receptor), read-out: pIC50, CRE-SPAP, low potency component (converted)
Protocol: The response to all ligand used in this study was examined in the parent CHO-SPAP cells (expressing the reporter but not the human H3 receptor). Full 7-point concentration response curves were constructed, in the presence and absence of 4 μM forskolin. […].

CHO-H3-SPAP cells = assay: Trypan blue uptake in CHO-H3-SPAP cells; conditions: 5 hours incubation
[4] = target: T1, human histamine H3 receptor
Protocol: as §1, §2, §3, §4, §5, §6
Log (DR-1) = log [B] - log (KD)
as §7, §8, §9

[5] = Log KD values, agonist N-α-methylhistamine
[6] = Log KD values, agonist R-α-methylhistamine
[7] = Log KD values, agonist S-α-methylhistamine
[8] = Log KD values, agonist VUF 8430
[9] = Log KD values, agonist histamine
[10] = Log KD values, agonist immethridine
[11] = Log KD values, agonist impentamine (first component of the response)
[12] = Log KD values, agonist proxyfan
[13] = agonism, inhibition of 10 μM forskolin-stimulated 3H-cAMP accumulation, CHO-H3-SPAP cells, read-out: pIC50, 3H-cAMP accumulation (converted)
[14] = agonism, inhibition of 10 μM forskolin-stimulated 3H-cAMP accumulation, CHO-H3-SPAP cells

T1 sequence (Q9Y5N1 whole entry): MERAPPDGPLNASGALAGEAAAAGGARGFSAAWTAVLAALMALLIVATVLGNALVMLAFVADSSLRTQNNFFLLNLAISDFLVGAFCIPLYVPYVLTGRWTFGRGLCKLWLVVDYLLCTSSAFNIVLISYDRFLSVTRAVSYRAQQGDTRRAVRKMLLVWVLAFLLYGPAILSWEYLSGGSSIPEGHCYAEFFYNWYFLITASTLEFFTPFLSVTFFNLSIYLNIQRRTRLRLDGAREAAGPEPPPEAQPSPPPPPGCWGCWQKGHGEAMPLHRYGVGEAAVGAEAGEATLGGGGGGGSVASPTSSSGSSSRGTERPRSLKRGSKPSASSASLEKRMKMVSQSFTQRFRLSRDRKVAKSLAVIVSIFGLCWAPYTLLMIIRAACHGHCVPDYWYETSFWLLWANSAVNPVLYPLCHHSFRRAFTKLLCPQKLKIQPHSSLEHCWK

SMILES: CN(C)CCC(c1ccc(Cl)cc1)c1ccccn1 (centres unmarked) [chlorpheniramine]
intrinsic activity response in 3H-cAMP accumulation ([1]; 5 hours incubation with ligand): No responses | Kd [2, 5]: 3090 nM | Kd [2, 6]: 3630 nM | Kd [2, 7]: 3630 nM | Kd [2, 8]: 7410 nM | Kd [2, 9]: 4790 nM | Kd ([2]; Log KD values, agonist imetit): 2630 nM | Kd [2, 10]: 2950 nM | Kd [2, 11]: 6170 nM | Kd [2, 12]: 4070 nM | Kd [3]: 2570 nM

SMILES: Cc1nc(N)sc1CCN [amthamine]
IC50 [2]: 13500 nM

SMILES: NC(=NCc1ccc(Cl)cc1)SCCCc1cnc[nH]1 [clobenpropit]
intrinsic activity response in 3H-cAMP accumulation ([1]; 5 hours incubation with ligand): No responses | Schild slope ([2]; agonist N-α-methylhistamine): 1.08 ± 0.07 | Schild slope ([2]; agonist R-α-methylhistamine): 1.10 ± 0.06 | Schild slope ([2]; agonist S-α-methylhistamine): 1.09 ± 0.04 | Schild slope ([2]; agonist histamine): 0.98 ± 0.03 | Schild slope ([2]; agonist imetit): 1.02 ± 0.04 | Schild slope ([2]; agonist immepip): 1.05 ± 0.02 | Schild slope ([2]; agonist immethridine): 1.02 ± 0.04

SMILES: NCCCCCc1cnc[nH]1 [impentamine]
IC50 (CHO-SPAP cells; with forskolin): 4680 nM | IC50 (CHO-SPAP cells; without forskolin): 3890 nM | IC50 ([1]; read-out: pIC50, 3H-cAMP accumulation (converted)): 3.72 nM | agonist character in CRE-SPAP screen ([2]; CHO-H3-SPAP cells): partial agonist actions | IC50 ([2]; pIC50, CRE-SPAP, low potency component, CHO-H3-SPAP cells, absence of forskolin, with PTX pre-incubation): 5130 nM | IC50 ([2]; pIC50, CRE-SPAP, low potency component, CHO-H3-SPAP cells, absence of forskolin, without PTX pre-incubation): 6610 nM | IC50 ([2]; pIC50, CRE-SPAP, second component remaining after PTX, forskolin-stimulated CHO-H3-SPAP cells, 24 hours pre-incubation with PTX): 6030 nM | IC50 ([2]; pIC50 Site 1, CRE-SPAP, first component of two-component response, forskolin-stimulated CHO-H3-SPAP cells): 25.7 nM | pIC50 Site 2, CRE-SPAP ([2]; second component of two-component response, forskolin-stimulated CHO-H3-SPAP cells): Site 2 5.40 ± 0.05 | intracellular uptake of trypan blue (CHO-H3-SPAP cells): did not show any intracellular uptake of trypan blue

SMILES: c1cc(CN2CCCCC2)cc(OCCCNc2nc3ccccc3s2)c1 [zolatidine]
intrinsic activity response in 3H-cAMP accumulation ([1]; 5 hours incubation with ligand): No responses | pKD values ([2]; agonist N-α-methylhistamine): 6.46 ± 0.07 | Schild slope ([2]; agonist N-α-methylhistamine): 1.10 ± 0.12 | pKD values ([2]; agonist R-α-methylhistamine): 6.52 ± 0.06 | Schild slope ([2]; agonist R-α-methylhistamine): 1.04 ± 0.04 | pKD values ([2]; agonist S-α-methylhistamine): 6.54 ± 0.07 | Schild slope ([2]; agonist S-α-methylhistamine): 1.10 ± 0.07 | pKD values ([2]; agonist VUF 8430): 6.38 ± 0.10 | pKD values ([2]; agonist histamine): 6.51 ± 0.07 | Schild slope ([2]; agonist histamine): 1.01 ± 0.04 | pKD values ([2]; agonist imetit): 6.62 ± 0.08 | Schild slope ([2]; agonist imetit): 1.17 ± 0.05 | Schild slope ([2]; agonist immepip): 1.18 ± 0.08 | pKD values ([2]; agonist immethridine): 6.66 ± 0.05 | Schild slope ([2]; agonist immethridine): 0.96 ± 0.02 | pKD values ([2]; agonist impentamine (first component of the response)): 6.52 ± 0.10 | pKD values ([2]; agonist proxyfan): 6.78 ± 0.06 | Schild slope ([2]; agonist proxyfan): 0.91 ± 0.11 | Kd [4]: 282 nM

SMILES: NCCc1ccccn1 [2-pyridylethylamine]
IC50 [2]: > 100000 nM

SMILES: CC(C1=C(CCN(C)C)Cc2ccccc21)c1ccccn1 (centres unmarked) [dimethindine, dimethindene]
intrinsic activity response in 3H-cAMP accumulation ([1]; 5 hours incubation with ligand): No responses | Kd [2, 5]: 2140 nM | Kd [2, 6]: 2240 nM | Kd [2, 7]: 2140 nM | Kd [2, 8]: 7760 nM | Kd [2, 9]: 2340 nM | Kd ([2]; Log KD values, agonist imetit): 2510 nM | Kd [2, 10]: 4170 nM | Kd [2, 11]: 2570 nM | Kd [2, 12]: 5750 nM | Kd [3]: 1910 nM

SMILES: c1nc(CC2CCNCC2)c[nH]1 [immepip]
IC50 [1]: 0.0501 nM | IC50 [2]: 0.224 nM

SMILES: Cc1nc[nH]c1CCN [4-methylhistamine]
IC50 [2]: 11500 nM

SMILES: Cn1cncc1CCN [3-methylhistamine]
IC50 [2]: 13500 nM

SMILES: c1cc(Cc2cnc[nH]2)ccn1 [immethridine]
IC50 [1]: 0.174 nM | IC50 [2]: 0.389 nM

SMILES: CC(CCCCC(=O)Nc1ccc(C(F)(F)F)cc1)NCCc1cnc[nH]1 (centres unmarked) [HTMT, histamine trifluoromethyl toluidide]
pIC50, CRE-SPAP ([2]; CHO-H3-SPAP cells): 5.21 ± 0.18

SMILES: C[C@H]1[C@H]2CC[C@H]3[C@@H]4CC=C5C[C@@H](N(C)C)CC[C@]5(C)[C@H]4CC[C@]23CN1C [conessine]
inverse agonist response, 3H-cAMP accumulation ([1]; 5 hours incubation with ligand): 120 ± 1.5 % basal | EC50 ([1]; 5 hours incubation with ligand, read-out: pEC50, inverse agonist response, 3H-cAMP accumulation (converted)): 3.09 nM | Schild slope ([2]; agonist N-α-methylhistamine): 0.98 ± 0.05 | Schild slope ([2]; agonist R-α-methylhistamine): 1.00 ± 0.06 | Schild slope ([2]; agonist S-α-methylhistamine): 1.08 ± 0.04 | Schild slope ([2]; agonist histamine): 1.07 ± 0.03 | Schild slope ([2]; agonist imetit): 1.18 ± 0.09 | Schild slope ([2]; agonist immepip): 1.09 ± 0.05 | Schild slope ([2]; agonist immethridine): 1.14 ± 0.08 | Kd ([2]; pKD values, agonist N-α-methylhistamine): 5.37 nM | Kd ([2]; pKD values, agonist R-α-methylhistamine): 5.75 nM | Kd ([2]; pKD values, agonist S-α-methylhistamine): 5.25 nM | Kd ([2]; pKD values, agonist VUF 8430): 7.08 nM | Kd ([2]; pKD values, agonist histamine): 5.13 nM | Kd ([2]; pKD values, agonist imetit): 5.75 nM | Kd ([2]; pKD values, agonist immethridine): 3.8 nM | Kd ([2]; pKD values, agonist impentamine (first component of the response)): 4.17 nM | Kd ([2]; pKD values, agonist proxyfan): 2.75 nM | Kd [3]: 8.13 nM

SMILES: CNCCc1cnc[nH]1 [N-α-methylhistamine]
pIC50, 3H-cAMP accumulation [1, 14]: 9.45 ± 0.05 | pIC50, CRE-SPAP ([2]; CHO-H3-SPAP cells): 8.89 ± 0.04

SMILES: S=C(NC1CCCCC1)N1CCC(c2cnc[nH]2)CC1 [thioperamide]
inverse agonist response, 3H-cAMP accumulation ([1]; 5 hours incubation with ligand): 106.3 ± 2.6 % basal | Schild slope ([2]; agonist N-α-methylhistamine): 0.98 ± 0.07 | Schild slope ([2]; agonist R-α-methylhistamine): 1.00 ± 0.05 | Schild slope ([2]; agonist S-α-methylhistamine): 1.01 ± 0.08 | Schild slope ([2]; agonist histamine): 1.01 ± 0.03 | Schild slope ([2]; agonist imetit): 1.02 ± 0.07 | Schild slope ([2]; agonist immepip): 1.06 ± 0.02 | Schild slope ([2]; agonist immethridine): 1.08 ± 0.04 | Schild slope ([2]; agonist proxyfan): 1.02 ± 0.03

SMILES: Cc1ccc(/C(=C\CN2CCCC2)c2ccccn2)cc1 [triprolidine]
intrinsic activity response in 3H-cAMP accumulation ([1]; 5 hours incubation with ligand): No responses | Kd [2, 5]: 4570 nM | Kd [2, 6]: 2630 nM | Kd [2, 7]: 3390 nM | Kd [2, 8]: 5500 nM | Kd [2, 9]: 4470 nM | Kd ([2]; Log KD values, agonist imetit): 3720 nM | Kd [2, 10]: 2950 nM | Kd [2, 11]: 2240 nM | Kd [2, 12]: 5890 nM | Kd [3]: 2450 nM

Now from value to compound, other results behind:

IC50 [1, 13]: 224 nM | IC50 [2]: 427 nM | agonist character in CRE-SPAP screen ([2]; CHO-H3-SPAP cells): partial agonist actions
SMILES: CNC(=S)NCCCCc1cnc[nH]1 [burimamide]

IC50 [1]: 0.123 nM | IC50 [2]: 0.437 nM
SMILES: N=C(N)SCCc1cnc[nH]1 [imetit]

IC50 [1, 13]: 4.9 nM | IC50 [2]: 16.2 nM
SMILES: c1ccc(COCCCc2c[nH]cn2)cc1 [proxyfan]

IC50 [2]: 2570 nM
SMILES: CN(C)CCCSC(=N)N [dimaprit]

IC50 [1, 13]: 3.89 nM | IC50 ([1]; pIC50, 3H-cAMP accumulation, 5 hours incubation, partial agonist response, 5 hours incubation with ligand): 3.8 nM | IC50 [2]: 25.1 nM | Kd [2, 5]: 11.2 nM | Kd [2, 6]: 25.1 nM | Kd [2, 7]: 17.8 nM | Kd [2, 8]: 19.5 nM | Kd [2, 9]: 17 nM | Kd ([2]; Log KD values, agonist imetit): 14.1 nM | Kd [2, 10]: 16.2 nM | Kd [2, 12]: 15.8 nM | agonist character in CRE-SPAP screen ([2]; CHO-H3-SPAP cells): agonist properties | Kd [3]: 19.1 nM
SMILES: Br.Br.c1nc(CCCC2CCNCC2)c[nH]1 [VUF 5681, 4-[3-(1H-imidazol-4-yl)propyl]piperidine dihydrobromide]
CRE-SPAP response in parent CHO-SPAP cells (CHO-SPAP cells; presence and absence of 4 μM forskolin, up to 100 μM (10 μM for zolatidine, conessine, iodophenpropit, clobenpropit, clemastine)): A small decrease from maximum was seen only at the highest concentration (100 μM)

pIC50, 3H-cAMP accumulation [1, 14]: 6.38 ± 0.07 | pIC50, CRE-SPAP ([2]; CHO-H3-SPAP cells): 5.66 ± 0.08
SMILES: Br.Br.N=C(N)NCCSC(=N)N [VUF 8430, 2-[(aminoiminmethyl)amino]ethyl carbamimidothioic acid ester dihydrobromide]

IC50 [2]: 20000 nM
SMILES: Cn1cnc(CCN)c1 [1-methylhistamine]
